In US8796304B2, “Tricyclic imidazole compounds as PDE10 inhibitors” (H. Lundbeck A/S, priority 2010, dated 2014):

Tests used:
PDE10A enzyme = PDE10A enzyme (Homo sapiens (Human), UniProt Q9Y233); assay: PDE10A inhibition assay (3H-cAMP, SPA beads); format: biochemical; settings: 10 nM 3H-cAMP, 1 hour incubation; read-out: PDE10 IC50
Experimental: PDE10A can be expressed as full-length proteins or as truncated proteins, as long as they express the catalytic domain, PDE10A can be prepared in different cell types, for example insect cells or E. coli. […] Expression in coil is performed according to standard protocols. Briefly, the expression plasmids are transformed into the BL21(DE3) E. coli strain, and 50 mL cultures inoculated with the cells allowed to grow to an OD600 of 0.4-0.6 before protein expression is induced with 0.5 mM IPTG. Following induction, the cells are incubated overnight at room temperature, after which the cells are collected by centrifugation. Cells expressing PDE10A are resuspended in 12 mL (50 mM TRIS-HCl-pH8.0, 1 mM MgCl2 and protease inhibitors). The cells are lysed by sonication, and after all cells are lysed, TritonX100 is added according to Novagen protocols.
Reactions are initiated by addition of the cyclic nucleotide substrate, and reactions are allowed to proceed for one hr at room temperature before being terminated through mixing with 15 uL […] yttrium silicate SPA beads (Amersham).
Following a 1 hour incubation the reactions were terminated by addition of 15 uL 8 mg/mL yttrium silicate SPA beads (Amersham). […] were calculated by non linear regression using XLfit (IDBS).

[1] = system: amphetamine induced hyperactivity; settings: rats; cited from earlier work
[2] = system: hyperactivity in rats induced by PCP; settings: cited from earlier work
catalepsy in rats = settings: cited from earlier work
[3] = system: PCP induced hyperactivity in mice; assay: Phencyclidine (PCP) induced hyperactivity; format: in vivo, mice (NMRI); settings: Mus musculus
Experimental: Male mice (NMRI, Charles River) weighing 20-25 g are used. Eight mice are used in each group receiving the test compound (5 mg/kg) plus PCP (2.3 mg/kg) including the parallel control groups receiving the vehicle of the test compound plus PCP or vehicle injections only. The injection volume is 10 ml/kg. The experiment is made in normal light conditions in an undisturbed room. The test substance is injected per oss 60 min before injection of PCP, which is administered subcutaneous.
Immediately after injection of PCP the mice are placed individually in special designed test cage (20 cm×32 cm). The activity is measured by 5×8 infrared light sources and photocells spaced by 4 cm. The light beams cross the cage 1.8 cm above the bottom of the cage. […]
Motility is recorded in 5 min intervals for a period of 1 hour. The drug effect is calculated on the total counts during the 1 hour behavioral test period in the following manner:
The mean motility induced by vehicle treatment in the absence of PCP is used as baseline. The 100 percent effect of PCP is accordingly calculated to be total motility counts minus baseline. The response in groups receiving test compound is thus determined by the total motility counts minus baseline, expressed in percent of the similar result recorded in the parallel PCP control group. […]

Chain of PDE10A enzyme (Q9Y233 716-1055): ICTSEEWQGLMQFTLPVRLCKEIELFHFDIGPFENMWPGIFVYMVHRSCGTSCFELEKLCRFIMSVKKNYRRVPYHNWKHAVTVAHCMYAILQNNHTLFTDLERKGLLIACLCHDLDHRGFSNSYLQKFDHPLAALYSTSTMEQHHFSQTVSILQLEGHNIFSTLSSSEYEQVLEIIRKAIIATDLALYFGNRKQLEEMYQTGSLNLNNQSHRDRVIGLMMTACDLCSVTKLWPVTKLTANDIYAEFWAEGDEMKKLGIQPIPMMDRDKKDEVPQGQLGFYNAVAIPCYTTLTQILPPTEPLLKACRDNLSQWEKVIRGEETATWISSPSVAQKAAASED

IC50 (PDE10A enzyme) [nM]	SMILES	further results
21	Cc1ncc(C)n2nc(CCc3cn4c(n3)-c3ccccc3C4C(C)(C)O)nc12 (centres unmarked) [2-{2-[2-(5,8-Dimethyl-[1,2,4]triazolo[1,5-a]pyrazin-2-yl)-ethyl]-5H-imidazo[2,1-a]isoindol-5-yl}-propan-2-ol]	
0.44	COc1cccc2c1-c1nc(CCc3nc4c(C)ncc(C)n4n3)cn1C2 [2-[2-(5,8-Dimethyl-[1,2,4]triazolo[1,5-a]pyrazin-2-yl)-ethyl]-9-methoxy-5H-imidazo[2,1-a]isoindole]	
	COc1ccc(Cc2nccc3cc(OC)c(OC)cc23)cc1OC [Papaverine, papaverine]	Reduction of amphetamine induced hyperactivity [1]: insignificant; Hyperactivity induced by PCP [2]: reduced hyperactivity; Catalepsy on its own (catalepsy in rats; alone): did not cause catalepsy on its own; Effect on the cataleptic effect of the D2 receptor antagonist haloperidol (catalepsy in rats; together with haloperidol): potentiated the cataleptic effect
4.4	Cc1ncc(C)n2nc(C=Cc3cn4c(n3)-c3ccccc3C4)nc12 (racemic) [2-[-2-(5,8-Dimethyl-[1,2,4]triazolo[1,5-a]pyrazin-2-yl)-vinyl]-5H-imidazo[2,1-a]isoindole]	
2.4	Cc1c[n+]([O-])c(C)c2nc(CCc3cn4c(n3)-c3ccccc3C4)nn12 [2-[-2-(5,8-Dimethyl-7-oxy-[1,2,4]triazolo[1,5-a]pyrazin-2-yl)-ethyl]-5H-imidazo[2,1-a]isoindole]	
0.18	Cc1ncc(C)n2nc(CCc3cn4c(n3)-c3ccc(F)cc3C4)nc12 [2-[-2-(5,8-Dimethyl-[1,2,4]triazolo[1,5-a]pyrazin-2-yl)-ethyl]-7-fluoro-5H-imidazo[2,1-a]isoindole]	
6.9	Cc1cnc(CO)c2nc(CCc3cn4c(n3)-c3ccccc3C4)nn12 [{2-[2-(5H-Imidazo[2,1-a]isoindol-2-yl)-ethyl]-5-methyl-[1,2,4]triazolo[1,5-a]pyrazin-8-yl}-methanol]	
0.69	Cc1ccc(C)n2nc(CCc3cn4c(n3)-c3ccccc3C4)nc12 [2-[2-(5,8-Dimethyl-[1,2,4]triazolo[1,5-a]pyridin-2-yl)-ethyl]-5H-imidazo[2,1-a]isoindole]	
0.4	Cc1ncc(C)n2nc(CCc3cn4c(n3)-c3ccccc3C4)nc12 [2-[-2-(5,8-Dimethyl-[1,2,4]triazolo[1,5-a]pyrazin-2-yl)-ethyl]-5H-imidazo[2,1-a]isoindole]	inhibition at 5 mg/kg ([3]; at 5 mg/kg per os, PCP 2.3 mg/kg s.c.): 100%; ED50 ([3]; per os 60 min before PCP 2.3 mg/kg s.c., read-out: ED50, inhibition of PCP induced hyperactivity): 0.2 mg/kg
6.1	Cc1cccc2nc(CCc3cn4c(n3)-c3ccccc3C4)nn12 [2-[2-(5-Methyl-[1,2,4]triazolo[1,5-a]pyridin-2-yl)-ethyl]-5H-imidazo[2,1-a]isoindole]	
0.44	COc1cccc2c1Cn1cc(CCc3nc4c(C)ncc(C)n4n3)nc1-2 [2-[2-(5,8-Dimethyl-[1,2,4]triazolo[1,5-a]pyrazin-2-yl)-ethyl]-6-methoxy-5H-imidazo[2,1-a]isoindole]	
3.8	Cc1ncc(C)n2nc(CCc3cn4c(n3)-c3cccnc3C4)nc12 [2-[2-(5,8-Dimethyl-[1,2,4]triazolo[1,5-a]pyrazin-2-yl)-ethyl]-5H-imidazo[1′,2′:1,5]pyrrolo[3,4-b]pyridine]	
46	Cc1ncc(C)n2nc(CCc3cn4c(n3)-c3ncccc3C4)nc12 [2-[2-(5,8-Dimethyl-[1,2,4]triazolo[1,5-a]pyrazin-2-yl)-ethyl]-5H-imidazo[1′,2′:1,2]pyrrolo[3,4-b]pyridine]	
6.9	COc1ccc2c(c1)-c1nc(CCc3nc4c(C)ncc(C)n4n3)cn1C2 [2-[2-(5,8-Dimethyl-[1,2,4]triazolo[1,5-a]pyrazin-2-yl)-ethyl]-8-methoxy-5H-imidazo[2,1-a]isoindole]	
0.81	Cc1ncc(C)n2nc(CCc3cn4c(n3)-c3ccccc3CC4)nc12 [2-[2-(5,8-Dimethyl-[1,2,4]triazolo[1,5-a]pyrazin-2-yl)-ethyl]-5,6-dihydro-imidazo[2,1-a]isoquinoline]	
0.4	[2H]C([2H])([2H])c1ncc(C([2H])([2H])[2H])n2nc(CCc3cn4c(n3)-c3ccccc3C4([2H])[2H])nc12 [2-[2-(5,8-Bis(trideuteromethyl-[1,2,4]triazolo[1,5-a]pyrazin-2-yl)-ethyl]-5,5-dideutero-5H-imidazo[2,1-a]isoindole]	
260	Cc1cc(C)n2nc(SCc3cn4c(n3)-c3ccccc3C4)nc2n1 [2-[(5,7-dimethyl-[1,2,4]triazolo[1,5-a]pyrimidin-2-yl)sulfanylmethyl]-5H-imidazo[2,1-a]isoindole]	
0.79	Cc1ncc(C)n2nc(CCc3cn4c(n3)-c3c(F)cccc3C4)nc12 [2-[2-(5,8-Dimethyl-[1,2,4]triazolo[1,5-a]pyrazin-2-yl)-ethyl]-9-fluoro-5H-imidazo[2,1-a]isoindole]	
0.29	COc1ccc2c(c1)Cn1cc(CCc3nc4c(C)ncc(C)n4n3)nc1-2 [2-[2-(5,8-Dimethyl-[1,2,4]triazolo[1,5-a]pyrazin-2-yl)-ethyl]-7-methoxy-5H-imidazo[2,1-a]isoindole]	
1.2	Cc1ncc(C)n2nc(CCc3cn4c(n3)-c3cccc(F)c3C4)nc12 [2-[2-(5,8-Dimethyl-[1,2,4]triazolo[1,5-a]pyrazin-2-yl)-ethyl]-6-fluoro-5H-imidazo[2,1-a]isoindole]	
3.1	Cc1ncc(C)n2nc(CCc3cn4c(n3)-c3cc(F)ccc3C4)nc12 [2-[-2-(5,8-Dimethyl-[1,2,4]triazolo[1,5-a]pyrazin-2-yl)-ethyl]-8-fluoro-5H-imidazo[2,1-a]isoindole]	
